From paper PMC5116089, “Sulfheme formation during homocysteine S-oxygenation by catalase in cancers and neurodegenerative diseases” (Nature Communications, 2016)

Legend:
[1] = tested on: HCT-116 cells; assay: H2O2 consumption in cell lysates as a function of NaSH concentration; type: biochemical, human; settings: HCT-116 cell lysate; read-out: relative IC50 (rate of H2O2 consumption)
Description: (§1) CAT activity was measured on an Uvikon 941 spectrophotometer equipped with a temperature controlled water bath (±1 °C) by following the disappearance of H2O2 at 240 nm over 30–120 s at 25 °C. Catalase activity was calculated based on the rate of decomposition of hydrogen peroxide, which is proportional to the reduction of the absorbance at 240 nm. Experiments were carried out in a 3 ml quartz cuvette containing 11.7 mM H2O2 in 50 mM KPi, pH 7.4±1 mM DTPA and the reaction was initiated by adding 0.3–0.6 pmoles of CAT. The effect of biological thiols on the activity of CAT under physiological conditions was determined from a solution of CAT (30–60 nM) preincubated at 25 °C for at least 120 min as a function thiol concentration (0–40 mM for HCys and Cys, 0–100 mM for GSH) in 50 mM KPi, pH 7.4, 1 mM DTPA. Control experiments (biological thiols alone) were also performed in parallel. In each case, 10 μl of the reaction mixture (biological thiols±CAT) was added to the cuvette containing the H2O2 solution to initiate the reaction. Similarly, the effect of biological thiols on the activity of CAT under pathological conditions was determined from a solution of CAT (30–60 nM) containing a 2.124±0.386 molar excess of iron that was preincubated with various concentrations of thiols (0–1 mM) for at least 120 min at 25 °C in 50 mM KP at pH 7.4. The relative half inhibitory concentration (IC50) values were obtained by plotting the relative activity of CAT (A, in per cent) as a function of the concentration of thiol-compounds (RSH) and by fitting the data with the following four parameter logistic equation: A=Amin+(Amax−Amin)/(1+([RSH]/IC50)^n), where Amax is the maximal activity of CAT (constrained at 100%), Amin is the minimum activity achieved at saturating concentration of RSH and n is the Hillslope that characterizes the slope of the curve at its midpoint. The inactivation rate (kinact, min^−1) was extracted from the time course of the inactivation of CAT bioactivity using a fixed concentration of HCys. Accordingly, a solution of CAT (3.5–5 μM) was incubated with 2 mM L-HCys in 50 mM KPi, pH 7.4, 1 mM DTPA. Aliquots (10 μl) were taken at intervals (0–480 min), diluted 1:50 in 50 mM KPi, pH 7.4, 1 mM DTPA and assayed for CAT activity as described above. […] The effect of NaSH on the consumption of H2O2 in cell lysates was determined from a solution of cell lysates (0.5–3 mg ml^−1) incubated on ice with various concentrations of NaSH (0–200 μM). […]

[2] = tested on: HT-29 Glc−/+ cells; assay: as above; type: biochemical, human; settings: HT-29 Glc−/+ cell lysate (control line); read-out: relative IC50 (rate of H2O2 consumption)
Description: as §1

[3] = tested on: MDST8 cells; assay: as above; type: biochemical, human; settings: MDST8 cell lysate; read-out: relative IC50 (rate of H2O2 consumption)
Description: as §1

[4] = biological target: T1, immunocaptured catalase (Homo sapiens, UniProt P04040); assay: Relative specific activity of immunocaptured catalase (SpCAT) after incubation with NaSH; type: biochemical; settings: for effect of NaSH on SpCAT: NaSH 0–50 μM
T1 construct: Endogenous catalase activity in cell lysates; endogenous in cells; host or cells: human colorectal cancer cell lines; BE2-M17 human neuroblastoma cells (with or without rotenone)
T1 sequence (P04040 2-527 limits assumed): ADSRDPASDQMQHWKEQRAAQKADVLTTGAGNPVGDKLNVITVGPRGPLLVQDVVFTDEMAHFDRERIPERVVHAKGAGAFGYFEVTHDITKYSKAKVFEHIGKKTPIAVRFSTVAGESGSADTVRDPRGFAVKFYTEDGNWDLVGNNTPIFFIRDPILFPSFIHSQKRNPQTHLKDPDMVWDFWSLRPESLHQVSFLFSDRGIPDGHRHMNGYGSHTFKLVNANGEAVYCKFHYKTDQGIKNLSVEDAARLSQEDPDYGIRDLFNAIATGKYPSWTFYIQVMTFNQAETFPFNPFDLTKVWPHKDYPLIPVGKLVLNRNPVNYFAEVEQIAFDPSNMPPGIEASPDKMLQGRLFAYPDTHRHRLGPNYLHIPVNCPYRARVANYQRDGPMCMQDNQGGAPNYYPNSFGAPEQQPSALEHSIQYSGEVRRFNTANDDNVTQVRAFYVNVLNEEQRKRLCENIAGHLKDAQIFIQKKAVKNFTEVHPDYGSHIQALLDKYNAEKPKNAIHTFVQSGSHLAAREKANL
Description: The relative specific activity (activity and quantity) of catalase in the cell lysates was determined using the kit ab118184 from Abcam (Cambridge, MA). The measurements were performed in duplicate as per the manufacturer's protocol. Briefly, catalase in cell lysates (0.1–0.2 mg cell lysates per assay) was immunocaptured within the wells of the microplate. An assay buffer, which contains H2O2 that reacts with a substrate to generate a luminescent product, was added to each well. The presence of catalase in the reaction mixture reduces the production of light and the light produced in each well is thus inversely proportional to the amount of catalase activity. Then, the quantity of catalase was measured by adding to each well an anti-catalase primary detector antibody. After 1 h incubation at RT, the unbound detector antibody was washed away and an HRP-conjugated labelled secondary antibody specific for the primary detector antibody was added to the wells. After 1 h incubation, the wells were again washed and a 3,3′,5,5′-Tetramethylbenzidine (TMB) substrate solution was added to the wells. A blue colour (absorbance at 600 nm) developed in proportion to the amount of catalase bound. Luminescence and absorbance measurements were performed on an EnSpire Multilabel Reader 2300 (PerkinElmer). To check the effect of NaSH on the relative specific activity of catalase, the immunocaptured catalase was incubated with various concentrations of NaSH (0–50 μM) for 5 min at RT before carefully washing twice each well. The protocol above was then followed to determine activity measurement and catalase quantification.

[Na+].[SH-] [NaSH]
IC50 [1]: 1.8 ± 1.5 µM | IC50 [2]: 15 ± 5.3 µM | IC50 [3]: 20.4 ± 4 µM | response of SpCAT towards NaSH ([4]; BE2-M17 cells versus rotenone-treated BE2-M17 cells): similar | effect of NaSH on SpCAT ([4]; HCT-15 cancer cells): inhibited | effect of NaSH on SpCAT ([4]; HCT-116 cancer cells): almost unaffected | effect of NaSH on SpCAT ([4]; HT-29 Glc−/+ control cell line): almost unaffected | effect of NaSH on SpCAT ([4]; MDST8 cancer cells): activated
